How the values were obtained:
B. pertussis = conditions: in vivo; cited from earlier work
albumin = conditions: cited from earlier work
[1] = test system: human umbilical vein endothelial cells; experiment: Adherence of neutrophils to cultured (TNF-stimulated) endothelial cells; type: cell-based; conditions: for neutrophil adherence blocking activity (in words) / inhibition of neutrophil adherence to endothelial cells: 0.5 mM; for neutrophil adherence blocking activity (in words): compared with FHA Ca
Experimental: Human umbilical vein endothelial cells (HUVEC, first passage, Clonetics, San Diego, Calif.) were subcultured at confluence into Terasaki tissue culture wells. After 24 hours, confluent monolayers were used for adherence assays. Monolayers were stimulated with 10 ng/ml TNF alpha (Boehringer Mannheim, Indianapolis, Ind.) at 37° C. for four hours. 30 μl of human neutrophils (10^6 /ml) were labeled with fluorescein by the method of Lo et al. (1991), J. Exp. Med. 173 1493-1500, and preincubated for 15 minutes at 37° C. with 20 μl of peptides (0.5 mM in HAP) or HAP (phosphate buffered saline containing 0.5 mg/ml human serum albumin, 3 mM glucose, and 0.3 U/ml aprotinin) as a control buffer. For some experiments, endothelial cells were pretreated from 10 minutes with Factor X or antibodies against Factor X receptor (EPR-1; Altieri et al. (1990), J. Immunol. 145, 246-253) 12H1 and 9D4 (obtained from Dr. D. Altieri, Scripps Research Institute, Lajolla, Calif.) and then washed. Neutrophils were allowed to adhere to the monolayer for 15 mins. at 37° C. and unbound cells were removed by submersion of the plate in PBS buffer. The number of adherent neutrophils was counted in a 40× microscope field and expressed as a percentage of adherence in control wells with neutrophils treated with HAP buffer alone. The mAb IB4 against CD18 (50 μg/ml; Merck Inc., Rahway, N.J.) served as a positive control.
(§1) The procedures for determining the neutrophil adherence to cultured endothelial cells and the transendothelial migration of neutrophils were identical with those of Example 9. Control values were the same as those shown in Example 9.

blood brain barrier = experiment: Rabbit meningitis model: CSF protein and lactate (blood brain barrier permeability); type: in vivo
Experimental: (§2) The rabbit model was performed according to an established protocol. Specific pathogen free, New Zealand white rabbits (2 kg; Hare Marland, Nutley, N.J.) were anesthetized with valium (2.5 mg/kg, subcutaneously, Hoffman-LaRoche, Nutley, N.J.), ketamine (35 mg/kg, intramuscularly, Aveco, Fort Dodge, Iowa) and xylazine (5 mg/kg, intramuscularly, Miles Laboratories, Shawnee, Kans.) and a helmet of dental acrylic was affixed to the calvarium. Twenty four hours later, the rabbits were anesthetized with ethyl carbamate (1.75 g/kg; Aldrich Chemical Co., Milwaukee, Wis.) and pentobarbital (15 mg/kg; Abbott Laboratories, Abbott Park, Ill.) and placed in a stereotaxic frame. A spinal needle was introduced into the cisterna magna and 300 μl of CSF was withdrawn. The animals were challenged intracisternally with 10^8 heat killed, unencapsulated pneumococcus strain R6 introduced in 200 μl of saline (time 0). One hour later, animals were treated with peptides dissolved in 1 ml of saline by intravenous injection into the right marginal ear vein. The concentration of FHA was 0.1 μM and that of the FHA Ia, Factor X II, and scrambled FHA II peptides was 10 μM. For the acetyl-FHA II, acetyl/amide-FHA II, dimer of FHA II and trimer of FHA II peptides, the concentration was 10^-3 μM. The concentration of FHA II is given in the results section. Samples of CSF were withdrawn at hourly intervals after pneumococcal inoculation and leukocyte density was measured using a cell counter (Coulter Electronics Inc., Hialeah, Fla.). CSF samples were centrifuged at 10,000×g for 5 minutes and the supernatant was stored at -70° C. until assayed for protein concentration using the bicinchoninic acid method (BCA Kit, Pierce Chemical Co., Rockford, Ill.) and for lactate concentration (Lactate Detection Kit, Sigma, St. Louis, Mo.). Statistically significant differences between treatments were determined by a one way analysis of variance test.
Loss of barrier function of the cerebral capillary endothelium during inflammation is reflected by an influx of serum proteins into the CSF. […] To examine if the peptides were able to ameliorate these measures of cerebral injury, CSF protein and lactate concentrations were measured hourly in peptide-treated and control animals (Table 10).
Leukocyte migration into the CSF in bacterial meningitis is associated with loss of barrier function of the cerebral capillary endothelium, resulting in influx of serum proteins into the CSF. To determine whether FHA peptides were able to prevent this leukocyte-dependent injury, protein concentrations in the CSF were measured throughout the course of inflammation in peptide-treated and control animals.

CD11b/CD18 = target: T1, CD11b/CD18 (Homo sapiens, UniProt P05107+P11215); experiment: Downmodulation of CD11b/CD18 on macrophages (binding of C3bi-coated erythrocytes); type: cell-based; conditions: 0.5 mM
T1 construct: C3bi-erythrocyte rosetting after spreading on peptide-coated wells
T1 sequence (P05107 23-769, other chains not shown): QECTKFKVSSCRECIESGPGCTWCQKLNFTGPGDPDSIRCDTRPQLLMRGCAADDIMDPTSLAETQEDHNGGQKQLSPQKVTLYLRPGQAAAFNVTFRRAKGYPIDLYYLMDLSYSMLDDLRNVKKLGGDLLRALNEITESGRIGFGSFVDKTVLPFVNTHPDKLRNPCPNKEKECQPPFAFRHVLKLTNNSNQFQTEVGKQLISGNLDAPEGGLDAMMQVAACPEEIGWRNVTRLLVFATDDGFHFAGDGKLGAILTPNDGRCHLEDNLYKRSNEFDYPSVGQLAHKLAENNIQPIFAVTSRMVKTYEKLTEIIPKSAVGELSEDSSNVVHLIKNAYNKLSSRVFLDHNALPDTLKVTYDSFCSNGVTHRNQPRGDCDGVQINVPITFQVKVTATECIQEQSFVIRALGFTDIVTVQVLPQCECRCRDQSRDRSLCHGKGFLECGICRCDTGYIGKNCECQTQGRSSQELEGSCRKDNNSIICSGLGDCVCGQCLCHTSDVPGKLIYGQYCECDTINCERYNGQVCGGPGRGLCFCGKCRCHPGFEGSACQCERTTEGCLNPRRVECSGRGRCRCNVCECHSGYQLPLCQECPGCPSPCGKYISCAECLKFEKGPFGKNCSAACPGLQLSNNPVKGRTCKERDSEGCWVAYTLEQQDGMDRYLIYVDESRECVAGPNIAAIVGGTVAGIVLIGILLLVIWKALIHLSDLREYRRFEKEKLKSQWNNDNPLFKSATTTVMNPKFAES
Experimental: Human monocytes were purified from buffy coats on Percoll gradients and cultured in 12.5% human serum in Teflon beakers. Macrophages were harvested from Teflon beakers after 6-8 days and suspended in HAP buffer. Terasaki wells were coated with 5 μl of peptides (0.5 mM) or anti-CD18 mAb IB4 (50 μg/ml). Control wells were coated with HAP. After 2 hours of incubation at RT, 5 μl of macrophages (5×10^5 /ml HAP) were added and allowed to spread for 45 mins. at 37° C. […] IgM-coated erythrocytes in buffer served as negative control. After washing, the number of erythrocytes bound per 100 leukocytes (adherence index) was quantitated visually under an inverted microscope.

leukocytes in CSF [2] = experiment: Rabbit meningitis model: leukocyte migration into CSF; type: in vivo; conditions: for leukocyte migration into CSF (in words): 0.1 μM peptide i.v.; for leukocyte density in CSF: 7 hours, 1 ml of 1 uM peptide i.v.
Experimental: as §2
The anti-inflammatory effects of the administered peptides were assessed in the rabbit model for meningitis by the procedures described in Example 10. The animals received 1 ml of 1 uM peptide intravenously. In a slight departure from the protocol described in Example 10, samples of blood were drawn from the left marginal ear vein 30 minutes after the administration of the peptides to determine peripheral leukocyte concentrations.

[3] = Stability in 50% rabbit plasma; type: in vitro ADME; conditions: 37° C.
Experimental: To determine the stability of the FHA II peptide, the unmodified or the acetylated-amidated peptide were incubated in 50% rabbit plasma at 37° C.

leukocytes in CSF [4] = experiment: Rat meningitis model (LOS): CSF leukocytosis; type: in vivo; conditions: 600 nmol i.v., 4 hours
Experimental: The experiments were performed according to established protocols (Wispelway et al., 1988, J. Clin. Invest., 82: 1339-1346). Purified Haemophilus influenzae type b strain DL42 lipooligosaccharide (LOS) was prepared for inoculation by sonication for 30 minutes, dilution to the desired concentration (20 ng/50 μl) in normal saline or PBS, and sonication for an additional 15 to 30 minutes just prior to use.
(§3) Briefly, anesthetized female Wistar rats were placed under a micromanipulator and inoculated intracisternally with a 25 gauge needle. After removal of 50 μl of CSF (without visible blood contamination), rats were inoculated intracisternally with 50 μl (20 ng) of LOS using a 1 ml syringe with a 25 gauge needle. Ten to fifteen minutes after inoculation with LOS, the rats were treated by intravenous administration of the test substance: a solution of an FHA peptide in PBS, a solution of a control peptide in PBS, or an equal volume of PBS alone.
(§4) Three hours after LOS inoculation, 5 μCi of ^125 I-radiolabelled albumin in 50 μl normal saline was administered intravenously. One hour later, CSF was collected via intracisternal puncture and blood samples were collected via intracardiac puncture. CSF leukocytosis was determined by manually counting white blood cells using a hemacytometer, and blood-brain barrier permeability was determined as the percent of radioactivity in whole blood that was present in the CSF. Blood samples were obtained immediately prior to inoculation, immediately prior to treatment, and at 4 hours post-inoculation for determination of peripheral white blood cell concentrations.

blood-brain barrier = experiment: Rat meningitis model (LOS): blood-brain barrier permeability; type: in vivo; conditions: for inhibition of blood-brain barrier permeability (in words): rat, in vivo
Experimental: as §3, §4

[5] = Peripheral white blood cells in rats; conditions: rat, in vivo
Experimental: as §4

neutrophils = experiment: Transendothelial migration of neutrophils; type: cell-based, human; conditions: for % Inhibition of TEM: peptides 0.01 mM
Experimental: Transendothelial migration of neutrophils was studied based on a method described by Muller et al. (1992), J. Exp. Med. 176: 819-828. Briefly, human neutrophils suspended in ice-cold Hanks balanced salt solution (HBSS) containing Ca^++ and Mg^++ (Sigma) were fluoresceinated by adding 3.3 μl/ml 5-(and 6-)carboxyfluorescein diacetate, succinimidyl ester (CFSE, Molecular Probes Inc., Oreg.). After incubation for 30 mins. on ice, neutrophils were washed twice in cold HBSS with Ca^++ and Mg^++ and resuspended in cold Medium 199 (M199, Sigma) to a final concentration of 10^6 /ml. Human umbilical vein endothelial cells were subcultured at confluence into 96-well tissue culture plates (Becton Dickinson Labware, Lincoln Park, N.J.) that were coated with hydrated collagen gel (Vitrogen; Collagen Corporation, Palo Alto, Calif.) and fibronectin. Endothelial cells were stimulated with 10 ng/ml TNF-alpha for 4 hours and washed three times with warm M199. Neutrophils (10^6 /ml) were preincubated with 0.01 mM of peptides or with 1 μM of native FHA in M199 for 5 mins. on ice before they were added in 100 μl aliquots to the endothelial cells. For positive control, neutrophils were pre-incubated with 25 μg/ml anti-CD18 mAb IB4. For negative control, neutrophils were treated with 25 μg/ml mAb W6/32 against HLA class I antigen (Dako, Carpinteria, Calif.). The cells were incubated for 1 hour at 37° C., 5% CO2. To terminate transmigration, the supernatant fluid was aspirated and the wells were filled with warm 1 mM EGTA (Sigma) in HBSS without Ca and Mg. The plates were covered with plate sealers (Dynatech, Alexandria, Va.) and centrifuged in an inverted position at 250 g for 3 mins. at room temperature. To remove residual non-transmigrated neutrophils from the endothelial cells, monolayers were washed twice with 200 μl of warm Hanks solution without Ca and Mg. Fluorescence was quantitated using a fluorescence counter (Millipore Cytofluor™ 2300). The percentage of transmigrated neutrophils was determined by comparing the amount of fluorescence of test wells with that measured in collagen- and fibronectin-coated wells without endothelial cells. […] Percent inhibition of transendothelial migration of neutrophils was calculated by comparing the number of transmigrated cells in wells containing neutrophils treated with peptide to neutrophils treated with M199 alone and arbitrarily set at 100% transendothelial migration (TEM).
as §1

cerebral infarct = experiment: Rat transient middle cerebral artery occlusion: infarct volume; type: in vivo; conditions: 2 hours MCAo; 50 nmol i.v. plus 150 nmol i.p. boluses; 48 hours
ciliated cells = conditions: cited from earlier work

OC[C@H]1O[C@@H](O[C@H]2[C@H](O)[C@@H](O)C(O)O[C@@H]2CO)[C@H](O)[C@@H](O)[C@H]1O (stereo partly shown) [Lactose]
colonization of rabbit lung (B. pertussis): decrease colonization of rabbit lung

CC1(C)S[C@@H]2[C@H](NC(=O)Cc3ccccc3)C(=O)N2[C@H]1C(=O)O [penicillin]
bound to albumin (albumin): ~80%

AADPHQGVLAQGDIIMDAKG [FHA Cc]
neutrophil adherence blocking activity (in words) [1]: activity was detectable above background but was not statistically different from buffer alone | Total protein in CSF (blood brain barrier; 6 hours): 1.36 ± 0.16 mg/mL | Total protein in CSF (blood brain barrier; 7 hours): 1.90 ± 0.22 mg/mL | effect on CD11b/CD18 (in words) (CD11b/CD18): no significant effect

Ac-ETKEVDG-NH2 [Acetyl/Amide-FHA II]
interference with neutrophil adherence (in words) ([1]; peptides 0.5 mM): significantly enhanced the ability of peptide FHA II to block neutrophil adherence to endothelia | leukocytes in CSF (leukocytes in CSF [2]; 6 hours, 10 nmoles i.v.): 3011±684 cells/μl | protein influx into CSF and lactate generation (in words) (blood brain barrier; 10 μM peptides, 0.1 μM FHA): significantly reduced protein influx into the CSF and generation of lactate | concentration over time (in words) [3]: remained unchanged over 48 hours | Leukocytosis (CSF leukocyte concentration) (leukocytes in CSF [4]): approximately 10,000 cells/ml | Leukocytosis (CSF leukocyte concentration) (leukocytes in CSF [4]; listed as ac/am FHA II): 10,500 ± 8523 cells/ml | inhibition of blood-brain barrier permeability (in words) (blood-brain barrier): not observed | neutropenia [5]: No neutropenia

GTLLLRNDALTENGTVTISA [FHA Cd]
inhibition of neutrophil adherence to endothelial cells [1]: < 15% | % Inhibition of TEM (neutrophils): 6 ± 6% | leukocyte recruitment into CSF (in words) (leukocytes in CSF [2]; 1 μM peptide i.v.): no effect | Total protein in CSF (blood brain barrier; 6 hours): 1.71 ± 0.19 mg/mL | Total protein in CSF (blood brain barrier; 7 hours): 2.03 ± 0.57 mg/mL | effect on CD11b/CD18 (in words) (CD11b/CD18): no significant effect

RADPHQGVLAQGDIIMDAKG [FHA Cb]
neutrophil adherence blocking activity (in words) [1]: activity was decreased by half | % Inhibition of TEM (neutrophils): 8 ± 9% | leukocyte migration into CSF (in words) (leukocytes in CSF [2]): ineffective | leukocyte density in CSF (leukocytes in CSF [2]): 2788±1022 cells/μl CSF | Total protein in CSF (blood brain barrier; 6 hours): 1.91 ± 0.24 mg/mL | Total protein in CSF (blood brain barrier; 7 hours): 2.28 ± 0.28 mg/mL | effect on CD11b/CD18 (in words) (CD11b/CD18): no significant effect

RGDPHQGVLAQGDIIMDAKG [FHA Ca]
concentration at which loss of activity (≤20% inhibition) occurred [1]: 1 µM | inhibition of neutrophil adherence to endothelial cells [1]: 47±7% | maximal inhibition of neutrophil attachment ([1]; concentration dependence): ~ 50% | concentration required for inhibition of transendothelial migration similar to native FHA (82%) (neutrophils): 10 µM | leukocyte migration into CSF (in words) (leukocytes in CSF [2]): significantly reduced leukocyte migration into the CSF | leukocyte density in CSF (leukocytes in CSF [2]): 2137±1498 cells/μl CSF | Total protein in CSF (blood brain barrier; 6 hours): 1.18 ± 0.39 mg/mL | Total protein in CSF (blood brain barrier; 7 hours): 1.69 ± 0.41 mg/mL | BBB permeability (blood-brain barrier; 100 nmol i.v., radioactivity in CSF of that in whole blood): 3.0% | inhibition of blood-brain barrier permeability (in words) (blood-brain barrier): dose dependent | infarct volume (cerebral infarct): approximately 25 % of the hemisphere | neutropenia [5]: No neutropenia

lactosamines
inhibition of adherence of B. pertussis to human ciliated cells (ciliated cells): Inhibition of adherence
